# Key:
# CAMKK2 = molecular target: T1, CAMKK2 (Homo sapiens, UniProt Q96RR4); assay: Kinobeads competition binding: CAMKK2; settings: target CAMKK2
# T1 construct: endogenous in cells
# Description: Supplement 41589_2023_1459_MOESM4_ESM.xlsx, sheet "CATDS matrix" | column: CAMKK2
# CSNK1G1 = assay: Kinobeads competition binding: CSNK1G1; parameters: species or system human; settings: target CSNK1G1;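 note: share of total target engagement due to this protein at one drug concentration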
# MELK = assay: Kinobeads competition binding: MELK; parameters: species or system human; settings: target MELK;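 note: share of total target engagement due to this protein at one drug concentration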
# PIK3CA = molecular target: T2, PIK3CA (Homo sapiens, UniProt P42336); assay: Kinobeads competition binding: PIK3CA; settings: target PIK3CA;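 note: share of all-target engagement taken by this protein at its own Kdapp concentration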
# T2 construct: a mixture of lysates from five cancer cell lines; endogenous in cells
# Description: Supplement 41589_2023_1459_MOESM4_ESM.xlsx, sheet "CATDS matrix" | column: PIK3CA
# CAMK2D = molecular target: T3, CAMK2D (Homo sapiens, UniProt Q13557); assay: Kinobeads competition binding: CAMK2D; settings: target CAMK2D;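 note: selectivity score: engagement of this protein divided by summed engagement of all targets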
# T3 construct: endogenous in cells
# Description: Supplement 41589_2023_1459_MOESM4_ESM.xlsx, sheet "CATDS matrix" | column: CAMK2D
# ACVR1B = molecular target: T4, ACVR1B (Homo sapiens, UniProt P36896); assay: Kinobeads competition binding: ACVR1B; settings: target ACVR1B
# T4 construct: endogenous in cells
# T4 sequence (P36896 24-505): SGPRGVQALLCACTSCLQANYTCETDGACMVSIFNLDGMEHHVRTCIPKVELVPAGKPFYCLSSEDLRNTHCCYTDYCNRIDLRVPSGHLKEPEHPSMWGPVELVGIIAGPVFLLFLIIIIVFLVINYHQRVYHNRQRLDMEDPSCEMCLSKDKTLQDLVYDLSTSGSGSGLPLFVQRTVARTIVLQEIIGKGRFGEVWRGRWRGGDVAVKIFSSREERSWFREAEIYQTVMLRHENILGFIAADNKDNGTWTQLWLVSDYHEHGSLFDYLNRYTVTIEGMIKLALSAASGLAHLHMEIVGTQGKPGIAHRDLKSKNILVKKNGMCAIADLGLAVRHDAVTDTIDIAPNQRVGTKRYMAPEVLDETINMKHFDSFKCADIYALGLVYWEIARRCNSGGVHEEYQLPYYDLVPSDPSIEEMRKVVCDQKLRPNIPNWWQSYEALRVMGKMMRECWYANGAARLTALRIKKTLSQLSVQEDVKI
# ADRBK1 = assay: Kinobeads competition binding: ADRBK1; parameters: species or system human; settings: target ADRBK1
# MAP4K3 = assay: Kinobeads competition binding: MAP4K3; parameters: species or system human; settings: target MAP4K3
# PHKG2 = molecular target: T5, PHKG2 (Homo sapiens, UniProt P15735); assay: Kinobeads competition binding: PHKG2; settings: target PHKG2
# T5 construct: a mixture of lysates from five cancer cell lines; endogenous in cells
# T5 sequence (P15735 1-406): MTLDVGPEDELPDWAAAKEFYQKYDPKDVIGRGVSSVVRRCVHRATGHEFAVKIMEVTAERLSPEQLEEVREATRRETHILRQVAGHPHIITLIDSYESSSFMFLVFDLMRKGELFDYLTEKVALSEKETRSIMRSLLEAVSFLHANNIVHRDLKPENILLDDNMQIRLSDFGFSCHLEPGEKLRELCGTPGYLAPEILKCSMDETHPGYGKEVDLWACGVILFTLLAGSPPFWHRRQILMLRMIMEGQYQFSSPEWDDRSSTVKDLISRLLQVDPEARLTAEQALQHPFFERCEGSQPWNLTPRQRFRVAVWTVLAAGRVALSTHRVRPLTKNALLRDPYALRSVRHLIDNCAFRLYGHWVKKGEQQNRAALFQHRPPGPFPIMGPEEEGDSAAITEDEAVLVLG
# CLK3 = assay: Kinobeads competition binding: CLK3; parameters: species or system human; settings: target CLK3
# MAPK9 = assay: Kinobeads competition binding: MAPK9; parameters: species or system human; settings: target MAPK9
# IKBKE = molecular target: T6, IKBKE (Homo sapiens, UniProt Q14164); assay: Kinobeads competition binding: IKBKE; settings: target IKBKE
# T6 construct: endogenous in cells
# T6 sequence (Q14164 1-716): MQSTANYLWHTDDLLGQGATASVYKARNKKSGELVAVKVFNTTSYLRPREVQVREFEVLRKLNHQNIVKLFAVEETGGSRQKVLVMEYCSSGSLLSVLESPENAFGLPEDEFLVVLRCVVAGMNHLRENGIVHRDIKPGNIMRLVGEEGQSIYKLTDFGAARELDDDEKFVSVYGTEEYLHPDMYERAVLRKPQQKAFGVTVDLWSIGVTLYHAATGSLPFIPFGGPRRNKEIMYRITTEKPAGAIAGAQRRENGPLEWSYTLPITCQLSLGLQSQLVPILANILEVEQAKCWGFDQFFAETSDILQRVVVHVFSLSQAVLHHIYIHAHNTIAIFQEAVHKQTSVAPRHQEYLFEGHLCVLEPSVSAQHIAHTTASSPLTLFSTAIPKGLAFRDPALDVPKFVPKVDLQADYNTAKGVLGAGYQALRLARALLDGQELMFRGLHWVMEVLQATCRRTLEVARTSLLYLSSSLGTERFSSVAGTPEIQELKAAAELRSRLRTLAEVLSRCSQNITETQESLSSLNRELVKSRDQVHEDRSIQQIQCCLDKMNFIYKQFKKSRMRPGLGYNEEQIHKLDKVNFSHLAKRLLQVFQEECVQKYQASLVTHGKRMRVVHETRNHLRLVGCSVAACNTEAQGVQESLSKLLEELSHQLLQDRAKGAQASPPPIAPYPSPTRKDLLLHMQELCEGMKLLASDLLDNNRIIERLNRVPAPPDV
# MAP2K4 = assay: Kinobeads competition binding: MAP2K4; parameters: species or system human; settings: target MAP2K4
# MERTK = assay: Kinobeads competition binding: MERTK; parameters: species or system human; settings: target MERTK
# CDK4 = molecular target: T7, CDK4 (Homo sapiens, UniProt P11802); assay: Kinobeads competition binding: CDK4; settings: target CDK4
# T7 construct: endogenous in cells
# Description: Supplement 41589_2023_1459_MOESM4_ESM.xlsx, sheet "CATDS matrix" | column: CDK4
# T7 sequence (P11802 whole entry): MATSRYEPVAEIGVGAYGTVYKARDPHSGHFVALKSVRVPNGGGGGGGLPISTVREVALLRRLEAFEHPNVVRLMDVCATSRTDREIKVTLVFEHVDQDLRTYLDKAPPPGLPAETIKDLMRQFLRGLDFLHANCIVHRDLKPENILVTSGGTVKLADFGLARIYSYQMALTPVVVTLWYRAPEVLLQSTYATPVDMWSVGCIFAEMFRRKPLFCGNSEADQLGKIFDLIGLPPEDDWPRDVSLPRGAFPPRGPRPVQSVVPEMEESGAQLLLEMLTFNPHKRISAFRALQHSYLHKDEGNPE
# T1 sequence (Q96RR4 whole entry): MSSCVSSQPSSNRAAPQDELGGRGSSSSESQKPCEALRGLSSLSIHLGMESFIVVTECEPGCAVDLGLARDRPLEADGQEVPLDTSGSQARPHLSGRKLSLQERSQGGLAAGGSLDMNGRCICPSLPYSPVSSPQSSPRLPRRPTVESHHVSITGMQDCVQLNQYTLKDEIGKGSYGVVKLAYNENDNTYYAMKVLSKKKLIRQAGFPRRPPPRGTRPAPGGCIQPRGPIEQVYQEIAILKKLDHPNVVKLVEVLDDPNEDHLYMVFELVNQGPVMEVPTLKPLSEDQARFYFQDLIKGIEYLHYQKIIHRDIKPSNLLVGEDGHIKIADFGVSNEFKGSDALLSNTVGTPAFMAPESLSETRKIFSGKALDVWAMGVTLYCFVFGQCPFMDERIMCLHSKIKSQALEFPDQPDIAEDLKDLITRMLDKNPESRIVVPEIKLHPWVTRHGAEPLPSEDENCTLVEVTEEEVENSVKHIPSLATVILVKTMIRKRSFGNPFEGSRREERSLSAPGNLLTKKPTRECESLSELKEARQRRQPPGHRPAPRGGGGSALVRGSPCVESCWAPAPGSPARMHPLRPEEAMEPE
# T2 sequence (P42336 whole entry): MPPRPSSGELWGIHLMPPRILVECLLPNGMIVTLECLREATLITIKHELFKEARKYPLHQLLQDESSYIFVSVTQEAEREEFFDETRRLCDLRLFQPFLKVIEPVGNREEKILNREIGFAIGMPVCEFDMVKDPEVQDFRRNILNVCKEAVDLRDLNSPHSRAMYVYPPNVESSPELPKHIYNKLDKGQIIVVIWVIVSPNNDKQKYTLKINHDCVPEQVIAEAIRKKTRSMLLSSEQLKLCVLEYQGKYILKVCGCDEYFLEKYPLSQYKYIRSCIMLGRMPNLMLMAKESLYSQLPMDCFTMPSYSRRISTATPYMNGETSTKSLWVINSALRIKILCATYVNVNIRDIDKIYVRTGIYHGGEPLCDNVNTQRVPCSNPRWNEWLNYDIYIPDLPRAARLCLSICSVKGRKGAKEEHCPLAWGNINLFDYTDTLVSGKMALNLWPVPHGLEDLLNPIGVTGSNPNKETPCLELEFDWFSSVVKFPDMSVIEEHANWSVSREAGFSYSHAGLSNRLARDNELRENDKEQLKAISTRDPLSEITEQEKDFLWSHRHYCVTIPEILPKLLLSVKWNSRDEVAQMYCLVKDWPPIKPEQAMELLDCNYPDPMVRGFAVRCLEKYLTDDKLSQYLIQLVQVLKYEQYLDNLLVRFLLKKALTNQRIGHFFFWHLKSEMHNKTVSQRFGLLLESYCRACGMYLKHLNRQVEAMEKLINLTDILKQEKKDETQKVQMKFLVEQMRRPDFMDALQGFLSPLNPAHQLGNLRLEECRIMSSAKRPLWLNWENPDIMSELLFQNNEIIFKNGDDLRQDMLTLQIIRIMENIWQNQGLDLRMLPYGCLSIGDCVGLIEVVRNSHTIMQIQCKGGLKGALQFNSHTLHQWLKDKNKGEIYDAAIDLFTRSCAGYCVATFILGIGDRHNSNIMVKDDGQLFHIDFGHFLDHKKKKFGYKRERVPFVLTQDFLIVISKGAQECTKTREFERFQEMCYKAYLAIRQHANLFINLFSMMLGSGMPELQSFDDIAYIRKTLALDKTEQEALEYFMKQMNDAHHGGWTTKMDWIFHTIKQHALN
# T2 sequence (P27986 whole entry partner): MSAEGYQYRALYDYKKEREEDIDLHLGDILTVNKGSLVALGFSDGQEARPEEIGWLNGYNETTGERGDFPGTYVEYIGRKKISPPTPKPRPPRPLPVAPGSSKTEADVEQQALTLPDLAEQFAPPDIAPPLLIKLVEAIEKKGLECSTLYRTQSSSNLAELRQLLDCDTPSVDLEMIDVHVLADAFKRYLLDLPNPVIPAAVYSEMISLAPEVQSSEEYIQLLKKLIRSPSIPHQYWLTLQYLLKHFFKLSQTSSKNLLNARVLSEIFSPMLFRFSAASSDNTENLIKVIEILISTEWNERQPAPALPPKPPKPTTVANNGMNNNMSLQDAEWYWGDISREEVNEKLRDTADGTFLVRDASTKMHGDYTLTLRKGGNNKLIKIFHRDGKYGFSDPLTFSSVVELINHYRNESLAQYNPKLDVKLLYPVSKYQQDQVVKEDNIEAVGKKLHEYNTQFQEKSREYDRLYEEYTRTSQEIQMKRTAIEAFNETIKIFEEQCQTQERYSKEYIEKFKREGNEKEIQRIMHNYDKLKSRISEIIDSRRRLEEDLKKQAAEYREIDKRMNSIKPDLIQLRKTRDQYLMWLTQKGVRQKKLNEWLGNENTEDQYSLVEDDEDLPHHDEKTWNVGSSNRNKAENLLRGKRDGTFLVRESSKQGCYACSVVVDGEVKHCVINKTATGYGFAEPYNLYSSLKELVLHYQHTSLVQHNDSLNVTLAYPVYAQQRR
# T3 sequence (Q13557 whole entry): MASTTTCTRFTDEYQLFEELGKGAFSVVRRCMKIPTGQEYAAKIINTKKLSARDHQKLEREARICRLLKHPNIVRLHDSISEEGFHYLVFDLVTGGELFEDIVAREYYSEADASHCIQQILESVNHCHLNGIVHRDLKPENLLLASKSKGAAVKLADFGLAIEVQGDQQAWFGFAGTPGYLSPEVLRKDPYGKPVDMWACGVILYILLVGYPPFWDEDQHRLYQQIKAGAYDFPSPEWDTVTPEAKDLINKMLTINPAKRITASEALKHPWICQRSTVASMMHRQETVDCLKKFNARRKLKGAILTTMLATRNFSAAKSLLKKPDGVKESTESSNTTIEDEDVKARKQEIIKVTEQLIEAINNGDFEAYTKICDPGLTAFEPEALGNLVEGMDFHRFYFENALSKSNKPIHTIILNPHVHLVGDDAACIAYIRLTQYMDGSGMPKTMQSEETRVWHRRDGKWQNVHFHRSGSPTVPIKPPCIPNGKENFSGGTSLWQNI
SMILES,CATDS (CAMKK2),CATDS (CSNK1G1),CATDS (MELK),CATDS (PIK3CA),CATDS (CAMK2D),CATDS (ACVR1B),CATDS (ADRBK1),CATDS (MAP4K3),CATDS (PHKG2),CATDS (CLK3),CATDS (MAPK9),CATDS (IKBKE),CATDS (MAP2K4),CATDS (MERTK),CATDS (CDK4)
CCc1cc2c(cc1N1CCC(N3CCOCC3)CC1)C(C)(C)c1[nH]c3cc(C#N)ccc3c1C2=O [Alectinib],0,0,0,0,0,0,0,0,0,0,0,0,0,0,0
CCN1CCN(Cc2ccc(Nc3ncc(F)c(-c4cc(F)c5nc(C)n(C(C)C)c5c4)n3)nc2)CC1 [Abemaciclib],0,0,0,0,0.08654,0,0,0,0,0,0,0,0,0,0
Nc1ncnc2[nH]c(-c3ccccc3)nc12 [AH5015_KCGS],0,0,0,0,0,0,0,0,0,0,0,0,0,0,0
N#CC1(c2ccc(NC(=O)c3cccnc3NCc3ccncc3)cc2)CCCC1 [Apatinib],0,0,0,0,0,0,0,0,0,0,0,0,0,0,0
CN(C)C/C=C/C(=O)Nc1cc2c(Nc3ccc(F)c(Cl)c3)ncnc2cc1O[C@H]1CCOC1 [Afatinib],0,–,–,0,0,–,–,–,–,–,–,–,–,–,0
